This note sets out measurements from US8034822B2, “Glucokinase activators” (Takeda San Diego, Inc., priority 2006, dated 2011).

The test has as its target T1, glucokinase (GK) (Homo sapiens, UniProt P35557).
T1 construct: I.D. No. 1 corresponds to residues 12-465 of glucokinase; made in house; host or cells: E. coli DH10b-T1r, pFLAG-CTC plasmid
T1 sequence (P35557 with tags, fused parts or gaps isoform P35557-2): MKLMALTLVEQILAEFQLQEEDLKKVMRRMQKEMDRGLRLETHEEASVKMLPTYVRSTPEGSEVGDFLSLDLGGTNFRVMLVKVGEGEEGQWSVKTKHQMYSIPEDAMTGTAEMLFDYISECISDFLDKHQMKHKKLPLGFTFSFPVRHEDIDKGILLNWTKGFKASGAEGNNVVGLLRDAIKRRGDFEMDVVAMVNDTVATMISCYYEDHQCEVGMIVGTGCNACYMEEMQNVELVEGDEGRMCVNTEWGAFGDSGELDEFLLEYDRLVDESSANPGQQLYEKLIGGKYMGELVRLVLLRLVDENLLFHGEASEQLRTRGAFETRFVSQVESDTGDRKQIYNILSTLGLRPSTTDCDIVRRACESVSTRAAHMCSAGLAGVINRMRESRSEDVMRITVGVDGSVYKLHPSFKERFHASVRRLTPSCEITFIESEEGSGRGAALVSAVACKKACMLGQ
Description: enzymatic glucokinase activity assay (ATP consumption, KinaseGlo luminescence). The class given is biochemical. Particulars: Against GK; Kact = concentration giving 50% of maximal increase in GK activity; 5 μM ATP, 5 mM Glucose, 60 min room temperature; values given as bins; read-out: pKact. The source says: The activity of compounds as glucokinase activators may be assayed in vitro, in vivo or in a cell line. Provided below is an enzymatic glucokinase activity assay.
Purified glucokinase may be obtained as follows. DNA encoding residues 12-465 of the full-length sequence of the human enzyme may be amplified by PCR and cloned into the HindIII and EcoRI sites of pFLAG-CTC (Sigma). SEQ. I.D. No. 1 corresponds to residues 12-465 of glucokinase.
The expression of recombinant glucokinase protein may be carried out by transformation and growth of DH10b-T1r E. coli cells incorporating the (pFLAG-CTC) plasmid in LB media. Protein expression can be induced in this system by the addition of IPTG to the culture medium.
Recombinant protein may be isolated from cellular extracts by passage over Sepharose Q Fast Flow resin (Pharmacia). This partially purified GK extract may then be further purified by a second passage over Poros HQ10 (Applied Biosystems). The purity of GK may be determined on denaturing SDS-PAGE gel. Purified GK may then be concentrated to a final concentration of 20.0 mg/ml. After flash freezing in liquid nitrogen, the proteins can be stored at −78° C. in a buffer containing 25 mM TRIS-HCl pH 7.6, 50 mM NaCl, and 0.5 mM TCEP.
The activation properties of compounds for GK may be determined using a black 384-well-plate format under the following reaction conditions: 25 mM Hepes pH 7.2, 25 mM NaCl, 10 mM MgCl2, 0.01% Brij35, 1 mM DTT, 5 μM ATP, 5 mM Glucose 2% DMSO. The amount of ATP consumed may be determined quantitatively by addition of equal volume of luciferase reagent (luciferase+beetle luciferin—KinaseGlo Luminescent Kinase Assay kit from Promega). The luminescence intensity may be measured by using the Analyst HT from LJL Biosystems.
The assay reaction may be initiated as follows: 4 μl of substrate mixture (12.5 μM ATP and 12.5 mM Glucose) was added to each well of the plate, followed by the addition of 2 μl of activator (2 fold serial dilutions for 11 data points for each activator) containing 10% DMSO. 4 μL of 1.25 nM GK solution may be added to initiate the reaction. The reaction mixture may then be incubated at room temperature for 60 min, and quenched and developed by addition of 10 μL of luciferase reagent. Luminescence intensities of the resulting reaction mixtures may be measured after a 10 min incubation at room temperature. The luminescence intensity may be measured by using the Analyst HT from LJL Biosystems.
pKact and % ACTmax values may be calculated by non-linear curve fitting of the compound concentrations and luminescence intensities to a standard inhibition/activation equation.
In general terms: In Kinase-Glo more light means more ATP remaining.

Molecules are shown by their SMILES.

As for `O=C(Nc1ccccn1)C(CC1CCCCC1)n1cnc2ccc(F)cc2c1=O` (centres unmarked) [Compound 36, 3-cyclohexyl-2-(6-fluoro-4-oxoquinazolin-3(4H)-yl)-N-(pyridin-2-yl)propanamide], the EC50 is at least 2000 nM.
The figure for `O=C(NC1CC1)c1ccc2c(=O)n(C(CC3CCCCC3)C(=O)Nc3ncc(Cl)s3)cnc2c1` (centres unmarked) [Compound 170, 3-(1-(5-chlorothiazol-2-ylamino)-3-cyclohexyl-1-oxopropan-2-yl)-N-cyclopropyl-4-oxo-3,4-dihydroquinazoline-7-carboxamide] is at most 398 nM.
The value for `COC(=O)c1ccc(NC(=O)C(CC2CCCCC2)n2cnc3c(S(C)(=O)=O)csc3c2=O)nc1` (centres unmarked) [Compound 102, Methyl 6-(3-cyclohexyl-2-(7-(methylsulfonyl)-4-oxothieno[3,2-d]pyrimidin-3(4H)-yl)propanamido)nicotinate] was 1000 to 1580 nM.
With `COC(=O)c1ccc(NC(=O)C(CC2CCCCC2)n2cnc3cc(S(=O)(=O)CC4CC4)ccc3c2=O)nc1` (centres unmarked) [Compound 90, 6-[3-Cyclohexyl-2-(7-cyclopropylmethanesulfonyl-4-oxo-4H-quinazolin-3-yl)-propionylamino]-nicotinic acid methyl ester], the EC50 is 501 to 794 nM.
The value for `CN1CCC(CNC(=O)c2ccc3c(=O)n(C(CC4CCCCC4)C(=O)Nc4ncc(Cl)s4)c(=O)[nH]c3c2)CC1` (centres unmarked) [Compound 179, 3-(1-(5-chlorothiazol-2-ylamino)-3-cyclohexyl-1-oxopropan-2-yl)-N-((1-methylpiperidin-4-yl)methyl)-2,4-dioxo-1,2,3,4-tetrahydroquinazoline-7-carboxamide] was 501 to 794 nM.
The figure for `COC(=O)c1ccc(NC(=O)[C@@H](CC2CCCCC2)n2cnc3c(C(F)(F)F)cccc3c2=O)nc1` [Compound 211, (R)-methyl 6-(3-cyclohexyl-2-(4-oxo-8-(trifluoromethyl)quinazolin-3(4H)-yl)propanamido)nicotinate] is at most 398 nM; for `CS(=O)(=O)c1ccc2c(=O)n(C(CC3CCCCC3)C(=O)Nc3ccc(C(=O)O)cn3)c(=O)[nH]c2c1` (centres unmarked) [Compound 64, 6-[3-Cyclohexyl-2-(7-methanesulfonyl-2,4-dioxo-1,4-dihydro-2H-quinazolin-3-yl)-propionylamino]-nicotinic acid] it is at least 2000 nM.
For the molecule `O=C(NC1CC1)c1ccc2c(=O)n(C(CC3CCOCC3)C(=O)Nc3ncc(Cl)s3)c(=O)[nH]c2c1` (centres unmarked) [Compound 181, 3-(1-(5-chlorothiazol-2-ylamino)-1-oxo-3-(tetrahydro-2H-pyran-4-yl)propan-2-yl)-N-cyclopropyl-2,4-dioxo-1,2,3,4-tetrahydroquinazoline-7-carboxamide], the EC50 was at least 2000 nM.
Consider `CS(=O)(=O)c1ccc2c(=O)n(C(CC3CCCCC3)C(=O)Nc3ccc(C(=O)O)cn3)cnc2c1` (centres unmarked) [Compound 65, 6-[3-Cyclohexyl-2-(7-methanesulfonyl-4-oxo-4H-quinazolin-3-yl)-propionylamino]-nicotinic acid], for which the EC50 is at least 2000 nM.
Take `Cc1cnc(NC(=O)C(CC2CCCCC2)n2cnc3cc(S(C)(=O)=O)ccc3c2=O)s1` (centres unmarked) [Compound 61, 3-Cyclohexyl-2-(7-methanesulfonyl-4-oxo-4H-quinazolin-3-yl)-N-(5-methyl-thiazol-2-yl)-propionamide]: the EC50 was at least 2000 nM.
Regarding `CCOC(=O)CCc1ccc(NC(=O)C(CC2CCCCC2)n2cnc3cc(S(C)(=O)=O)ccc3c2=O)nc1` (centres unmarked) [Compound 76, 3-{6-[3-Cyclohexyl-2-(7-methanesulfonyl-4-oxo-4H-quinazolin-3-yl)-propionylamino]-pyridin-3-yl}-propionic acid ethyl ester], the EC50 is at least 2000 nM.
`COc1ccc2ncn(C(CC3CCCCC3)C(=O)Nc3ccc(C(N)=O)cn3)c(=O)c2c1` (centres unmarked) [Compound 167, 6-(3-cyclohexyl-2-(6-methoxy-4-oxoquinazolin-3(4H)-yl)propanamido)nicotinamide]: the EC50 is 501 to 794 nM.
For `CS(=O)(=O)c1csc2c(=O)n(C(CC3CCCCC3)C(=O)Nc3ccc(C(N)=O)cn3)cnc12` (centres unmarked) [Compound 182, 6-(3-cyclohexyl-2-(7-(methylsulfonyl)-4-oxothieno[3,2-d]pyrimidin-3(4H)-yl)propanamido)nicotinamide], the EC50 fell in the range of 1000 to 1580 nM.
As to `O=C(NC1CCCC1)c1ccc2c(=O)n(C(CC3CCCCC3)C(=O)Nc3ncc(Cl)s3)cnc2c1` (centres unmarked) [Compound 173, 3-(1-(5-chlorothiazol-2-ylamino)-3-cyclohexyl-1-oxopropan-2-yl)-N-cyclopentyl-4-oxo-3,4-dihydroquinazoline-7-carboxamide], the EC50 lay within 501 to 794 nM.
In the case of `COC(=O)c1ccc(NC(=O)C(CC2CCCCC2)n2cnc3c(C)cc(Cl)cc3c2=O)nc1` (centres unmarked) [Compound 207, methyl 6-(2-(6-chloro-8-methyl-4-oxoquinazolin-3(4H)-yl)-3-cyclohexylpropanamido)nicotinate], the EC50 lay within 1000 to 1580 nM.
Take `CC(C)S(=O)(=O)c1ccc2ncn(C(CC3CCCCC3)C(=O)Nc3ccc(Cl)cn3)c(=O)c2c1` (centres unmarked) [Compound 84, N-(5-Chloro-pyridin-2-yl)-3-cyclohexyl-2-[4-oxo-6-(propane-2-sulfonyl)-4H-quinazolin-3-yl]-propionamide]: the EC50 lay in the range of 501 to 794 nM.
The value for `CS(=O)(=O)c1cc(Cl)c2ncn(C(CC3CCCCC3)C(=O)Nc3ccc(C(N)=O)cn3)c(=O)c2c1` (centres unmarked) [Compound 92, 6-[2-(8-Chloro-6-methanesulfonyl-4-oxo-4H-quinazolin-3-yl)-3-cyclohexyl-propionylamino]-nicotinamide] was 501 to 794 nM; that for `O=C(Nc1ccc(Cl)cn1)C(CC1CCCCC1)n1cnc2ccc(F)cc2c1=O` (centres unmarked) [Compound 160, N-(5-chloropyridin-2-yl)-3-cyclohexyl-2-(6-fluoro-4-oxoquinazolin-3(4H)-yl)propanamide] was 1000 to 1580 nM.
`CCS(=O)(=O)c1ccc2c(=O)n(C(CC3CCCCC3)C(=O)Nc3ccc(C(N)=O)cn3)cnc2c1` (centres unmarked) [Compound 81, 6-[3-Cyclohexyl-2-(7-ethanesulfonyl-4-oxo-4H-quinazolin-3-yl)-propionylamino]-nicotinamide]: the EC50 was at most 398 nM.
`CS(=O)(=O)c1ccc2c(=O)n(C(Cc3c(F)cccc3F)C(=O)Nc3ccc(Cl)cn3)cnc2c1` (centres unmarked) [Compound 77, N-(5-Chloro-pyridin-2-yl)-3-(2,6-difluoro-phenyl)-2-(7-methanesulfonyl-4-oxo-4H-quinazolin-3-yl)-propionamide]: the EC50 lay within 1000 to 1580 nM.
Regarding `COc1ccc2ncn(C(CC3CCCCC3)C(=O)Nc3ccc(Cl)cn3)c(=O)c2c1` (centres unmarked) [Compound 168, N-(5-chloropyridin-2-yl)-3-cyclohexyl-2-(6-methoxy-4-oxoquinazolin-3(4H)-yl)propanamide], the EC50 lay in the range of 501 to 794 nM.
The value for `CS(=O)(=O)c1ccc2ncn(C(CC3CCCCC3)C(=O)Nc3ccc(Cl)cn3)c(=O)c2c1` (centres unmarked) [Compound 79, N-(5-Chloro-pyridin-2-yl)-3-cyclohexyl-2-(6-methanesulfonyl-4-oxo-4H-quinazolin-3-yl)-propionamide] was 501 to 794 nM; that for `O=C(NC1CC1)c1ccc2c(=O)n(C(CC3CCCCC3)C(=O)Nc3ccc(Cl)cn3)cnc2c1` (centres unmarked) [Compound 171, 3-(1-(5-chloropyridin-2-ylamino)-3-cyclohexyl-1-oxopropan-2-yl)-N-cyclopropyl-4-oxo-3,4-dihydroquinazoline-7-carboxamide] was at most 398 nM.
